Experimental findings from paper PMC10732257 (Oncotarget, 2023) are described below.

The structures appear in SMILES notation. Where only a bound is given, the exact number is not on record here.

Assay [1] relates to MV-4-11 cells. Briefly: Western blot of CDK9-regulated signaling in cultured cells. Particulars: 4-hour incubation. Format: cell-based, human. On the procedure: Figure 4 Effect of GFH009 on CDK9-dependent gene expression in cells. Western blot of MV-4-11 cells after exposure to different concentrations of GFH009 or Enitociclib for 4 hours was analyzed. A representative blot was shown from 3 independent experiments.
The effect of GFH009 on CDK9-regulated signaling pathways in human hematological malignancy cell lines was assessed via western blot. Cultured MV-4-11 cells, derived from human blastic AML cells (ATCC), were incubated at 37°C and 5% CO2 for 4 hours at final concentrations of 1 μM, 0.3 μM, 0.1 μM, 0.03 μM, and 0.01 μM for both GFH009 and enitociclib. Protein isolates were collected from pelleted cells as previously described, semi-quantified via western blot and analyzed using Image Studio 5.0 (LI-COR Biosciences, Lincoln, NE, USA).

For assay [2], the system named is human hematological malignancy-derived cell lines. Briefly: Cell viability / antiproliferative activity by CellTiter Glo. Particulars: in 7 of the 10 lines tested, 24 hours of exposure. The assay is classed as cell-based. Here is the method: Figure 3 Effect of GFH009 on cell proliferation in assorted human hematologic malignancy cell lines. Cell viability IC50s for GFH009 on human hematological malignancy-derived cell lines after 24 hours of exposure to the agent were determined using CellTiter Glo.
The antiproliferative activity of GFH009 was assessed in cultured cell lines derived from human hematological malignancies over a period of 24-hour in vitro assay readouts. Enitociclib was used as a comparator for experimental validation (provided by MedChem Express, Monmouth, NJ, USA). Cell growth was analyzed by CellTiter Glo in 96-well plates and detected via chemiluminescent signal. The absolute inhibitory concentration of 50% (AbsIC50 values of the drug were calculated by fitting the drug inhibition rate curve with the “log (inhibitor) versus response – variable slope (4 parameters)” model by using the Prism GraphPad 6 for Windows v6.01 software.
(Cellular ATP, detected with luciferase, serves as a proxy for viable cell number.)

For assay [3], the target named is CDK9/cyclin T1(h) (Homo sapiens, UniProt P50750). The conditions noted are these: read-out: IC50 of inhibition of the CDK9/Cyclin T1 complex; radiometric kinase activity. Here is the method: Figure 2 Effect of GFH009 on CDK9 enzymatic activity. IC50 of GFH009 inhibition activity against the CDK9/cyclin T1 complex was determined with Eurofin KinaseProfiler radiometric protein kinase activity.
GFH009 inhibition activity against the CDK9/cyclin T1 complex as well as off-target CDK family reactivity were assayed by Eurofins Pharma Discovery Services UK Ltd., (Dundee, UK). Determination of off-target inhibition of other kinases was conducted by DiscoverX LeadHunter Discovery Services (Freemont, CA, USA.) GFH009 reactivity to GPCR family members was assayed by Wuxi AppTech (Shanghai, China).

Chain of CDK9/cyclin T1(h) (P50750 whole entry): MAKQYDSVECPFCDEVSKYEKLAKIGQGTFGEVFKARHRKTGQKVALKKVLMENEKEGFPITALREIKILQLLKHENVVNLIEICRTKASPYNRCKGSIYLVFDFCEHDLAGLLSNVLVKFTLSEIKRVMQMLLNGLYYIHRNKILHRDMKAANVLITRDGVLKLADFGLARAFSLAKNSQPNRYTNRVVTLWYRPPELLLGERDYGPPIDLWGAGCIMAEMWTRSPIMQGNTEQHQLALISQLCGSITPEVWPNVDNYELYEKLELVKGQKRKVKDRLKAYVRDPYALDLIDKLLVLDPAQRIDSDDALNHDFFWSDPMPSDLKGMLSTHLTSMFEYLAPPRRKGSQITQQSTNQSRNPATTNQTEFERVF
Chain of CDK9/cyclin T1(h) (O60563 whole entry partner): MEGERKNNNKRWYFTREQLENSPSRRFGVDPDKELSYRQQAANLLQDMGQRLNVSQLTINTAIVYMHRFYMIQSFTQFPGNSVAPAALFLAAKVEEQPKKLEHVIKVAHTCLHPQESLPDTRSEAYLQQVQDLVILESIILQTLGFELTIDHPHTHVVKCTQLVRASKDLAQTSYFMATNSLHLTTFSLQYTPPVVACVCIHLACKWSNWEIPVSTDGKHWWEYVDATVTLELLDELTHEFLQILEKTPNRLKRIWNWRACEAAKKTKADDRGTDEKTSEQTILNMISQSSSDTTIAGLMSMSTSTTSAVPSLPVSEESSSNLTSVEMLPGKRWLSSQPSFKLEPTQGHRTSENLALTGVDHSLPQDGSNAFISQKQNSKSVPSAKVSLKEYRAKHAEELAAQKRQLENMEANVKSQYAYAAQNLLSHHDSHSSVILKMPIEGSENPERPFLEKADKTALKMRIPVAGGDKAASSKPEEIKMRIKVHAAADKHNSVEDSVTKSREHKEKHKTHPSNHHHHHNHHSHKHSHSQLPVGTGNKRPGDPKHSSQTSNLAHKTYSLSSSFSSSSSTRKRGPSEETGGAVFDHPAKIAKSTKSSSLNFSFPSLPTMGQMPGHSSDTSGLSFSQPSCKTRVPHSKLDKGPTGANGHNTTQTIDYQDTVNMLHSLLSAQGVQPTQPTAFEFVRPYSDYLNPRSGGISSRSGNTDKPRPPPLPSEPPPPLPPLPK

Take `COC[C@@H](C)NC1CCC(Nc2cc(-c3csc(NCC4(C#N)CCOCC4)n3)c(Cl)cn2)CC1` (stereo partly drawn) [GFH009]: the “Expression levels of MCL-1 and c-Myc” value in assay [1] (0.01-1 μM, western blot) is given as “dose-dependently decreased”. Besides, the “Expression level of phospho-Rpb1 CTD Ser2” value in assay [1] (increasing concentration, western blot) was “gradually decreased”. Besides, the “Expression levels of phospho-Rpb1 CTD Ser5 and total Rpb1” value in assay [1] (vs DMSO-only control) is given as “not significantly different”. In assay [1] (western blot), the “Concentration inducing cleavage of caspase-3 and PARP” value is recorded as “greater than 0.1 μM”. Also, the IC50 was under 200 nM in assay [2] and 9 nM in assay [3].
